The text below walks through data of patent US8460689B2, “Oral care method and kit” (3M Innovative Properties Company, priority 2009, dated 2013).

The test system of data set [1] is MRSA (methicillin-resistant Staphylococcus aureus), ATCC 33592. The experiment in a line: Test Method B2 - Second Antimicrobial Efficacy Testing. In kind it is cell-based. To be noted: 4 minutes.
Description: A 0.22% wt/wt solution of CHG was prepared at a pH of 6. All pH adjustments were made using either gluconic acid or sodium hydroxide. Each of the above excipient solutions (5 mL) were mixed with an equal amount (5 mL) of CHG solution (0.22% wt/wt). The mixtures were allowed to stand for 15 minutes at ambient conditions, along with a control CHG solution. All of these samples were centrifuged at 14,000 g for 15 minutes. After centrifugation, supernatant was carefully transferred to a new vial and submitted for Antimicrobial Efficacy testing (TEST METHOD B2) and HPLC testing (TEST METHOD C2), see below.
For Test Method B2 the above Test Method B was followed, with the following changes: • 1. Bacteria was MRSA (methicillin-resistant Staphylococcus aureus), ATCC 33592, instead of P. aeruginosa. • 2. Inoculum level was approximately 6.2 logs, instead of 5.8 logs. • 3. Incubation time with MRSA was 4 minutes, instead of 2.5 minutes. • 4. Neutralizer was Neutralizing Buffer, instead of D/E Neutralizing Broth. • 5. Incubation of the Petrifilm plates was 38 hours, instead of 43 hours.
A short description of data set [2]: Evaluation of Precipitate Formation with CHG. In kind it is physicochemical. To be noted: 1:1 mixture of excipient solution with 3.72% CHG, visual within 30 minutes; for Precipitation at Low pH: low pH per sample. The protocol:
It is thought that some excipients (inactives) may form a CHG complex, which is visible as a precipitate. Thus, CHG which complexes with an excipient, forming a precipitate would not be available for antimicrobial efficacy. The purpose of the precipitation formation testing was to observe the potential of an excipient to form a precipitates with CHG under the following test conditions.
Sample excipient solutions were prepared with distilled water to various concentrations of excipients according to Tables 12-16, below. The pH of the solutions was then adjusted to both a low pH and a high pH using either gluconic acid or NaOH. […] After combining the CHG solution with the excipient solution, the vial of the mixture was briefly swirled to mix. The mixtures were visually assessed for the presence/formation of a precipitate within 30 minutes. The results are shown in Tables P1-P5, where “Y” means precipitate was observed; “N” means no precipitate was observed; “*1” means the mixture could not be tested because a gel-like mass was formed when adding gluconic acid to reduce the pH down; and “*2” means the mixture could not be tested because it started to thicken when adding NaOH to raise the pH.

`N=C(NCCCCCCNC(=N)NC(=N)Nc1ccc(Cl)cc1)NC(=N)Nc1ccc(Cl)cc1.O=C(O)[C@H](O)[C@@H](O)[C@H](O)[C@H](O)CO.O=C(O)[C@H](O)[C@@H](O)[C@H](O)[C@H](O)CO` [CHG Control, 1,11-hexamethylene bis[5-(p-chlorophenyl)biguanide]di-D-gluconate, reference compound]: the “Log Reduction of MRSA” value in data set [1] (CHG 0.22 wt % control, excipient 0.0 wt %) worked out at 3.0. In the case of `O=C1NS(=O)(=O)c2ccccc21.[Na]` [P1, Sodium Saccharin], in data set [2], the “Precipitation at High pH” value is “Y” and the “Precipitation at Low pH” value is “Y”. Consider `C/C=C/C=C/C(=O)[O-].[K+]` [P4, Potassium Sorbate], for which, in data set [2], the “Precipitation at High pH” value was “Y”. Regarding `O=C([O-])c1ccccc1.[Na+]` [P7, Sodium Benzoate], in data set [2], the “Precipitation at High pH” value is on record as “Y” and the “Precipitation at Low pH” value was “Y”.

For the molecule `[Cl-].[K+]` [P10, KCL], in data set [2], the “Precipitation at High pH” value was “Y” and the “Precipitation at Low pH” value was “Y”. In the case of `[Cl-].[K+]` [P11, KCL], in data set [2], the “Precipitation at High pH” value is recorded as “Y” and the “Precipitation at Low pH” value is “Y”. With `[Cl-].[K+]` [P12, KCL], in data set [2], the “Precipitation at High pH” value was “N” and the “Precipitation at Low pH” value is on record as “N”. Regarding `[Cl-].[Na+]` [P13, NaCl], in data set [2], the “Precipitation at High pH” value is reported as “Y” and the “Precipitation at Low pH” value is “Y”. For the molecule `O=P(O)(O)O` [P16, H3PO4], in data set [2], the “Precipitation at High pH” value is reported as “Y” and the “Precipitation at Low pH” value is “Y”. With `O=C(O)CC(O)(CC(=O)O)C(=O)O` [P19, Citric Acid], in data set [2], the “Precipitation at High pH” value was “Y” and the “Precipitation at Low pH” value is “Y”. With `O=C1[N-]S(=O)(=O)c2ccccc21.[Na+]` [Sodium Saccharin, Benzoic Sulphimide Sodium Salt], the “Log Reduction of MRSA” value in data set [1] (supernatant of 0.50 wt % excipient solution mixed with equal amount of 0.22 wt % CHG) is recorded as 0.0.
